In patent US11339128B2 (Firmenich Incorporated, priority 2014, dated 2022):
Blank lines part the entries; values can stand above or below the compound they belong to.

How the values were obtained:
[1] = target: T1, T1R2/T1R3 taste receptor (Homo sapiens, UniProt Q7RTX0+Q8TE23); test: Receptor-based assay: sweetener EC50 enhancement ratio with and without test compound; type: cell-based; conditions: for Sucrose Enhancement EC50 Ratio: sweetener sucrose; for Sucralose Enhancement EC50 Ratio: sweetener sucralose; for Fructose Enhancement EC50 Ratio: sweetener fructose
T1 sequence (Q8TE23 20-839): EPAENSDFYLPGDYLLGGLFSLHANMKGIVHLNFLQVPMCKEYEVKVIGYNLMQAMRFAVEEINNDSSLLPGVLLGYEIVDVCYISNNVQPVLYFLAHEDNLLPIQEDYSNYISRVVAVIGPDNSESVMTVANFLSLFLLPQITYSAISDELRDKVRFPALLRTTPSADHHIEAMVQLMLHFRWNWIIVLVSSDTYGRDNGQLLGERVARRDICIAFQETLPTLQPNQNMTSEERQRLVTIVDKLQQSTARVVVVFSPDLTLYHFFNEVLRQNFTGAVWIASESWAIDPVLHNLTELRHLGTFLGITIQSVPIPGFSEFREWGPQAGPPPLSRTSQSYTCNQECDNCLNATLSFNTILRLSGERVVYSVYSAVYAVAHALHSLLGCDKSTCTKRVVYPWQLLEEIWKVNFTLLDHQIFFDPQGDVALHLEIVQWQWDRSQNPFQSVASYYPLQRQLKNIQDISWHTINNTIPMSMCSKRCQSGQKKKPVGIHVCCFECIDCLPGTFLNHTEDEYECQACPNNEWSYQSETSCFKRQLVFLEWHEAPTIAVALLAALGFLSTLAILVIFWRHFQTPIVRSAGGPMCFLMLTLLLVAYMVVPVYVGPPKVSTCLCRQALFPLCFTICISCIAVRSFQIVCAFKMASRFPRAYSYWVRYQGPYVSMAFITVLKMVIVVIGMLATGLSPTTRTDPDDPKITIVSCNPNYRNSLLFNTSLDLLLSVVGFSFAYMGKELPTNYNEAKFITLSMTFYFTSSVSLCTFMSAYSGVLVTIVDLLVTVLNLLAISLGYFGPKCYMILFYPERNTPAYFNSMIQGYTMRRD
T1 sequence (Q7RTX0 21-852): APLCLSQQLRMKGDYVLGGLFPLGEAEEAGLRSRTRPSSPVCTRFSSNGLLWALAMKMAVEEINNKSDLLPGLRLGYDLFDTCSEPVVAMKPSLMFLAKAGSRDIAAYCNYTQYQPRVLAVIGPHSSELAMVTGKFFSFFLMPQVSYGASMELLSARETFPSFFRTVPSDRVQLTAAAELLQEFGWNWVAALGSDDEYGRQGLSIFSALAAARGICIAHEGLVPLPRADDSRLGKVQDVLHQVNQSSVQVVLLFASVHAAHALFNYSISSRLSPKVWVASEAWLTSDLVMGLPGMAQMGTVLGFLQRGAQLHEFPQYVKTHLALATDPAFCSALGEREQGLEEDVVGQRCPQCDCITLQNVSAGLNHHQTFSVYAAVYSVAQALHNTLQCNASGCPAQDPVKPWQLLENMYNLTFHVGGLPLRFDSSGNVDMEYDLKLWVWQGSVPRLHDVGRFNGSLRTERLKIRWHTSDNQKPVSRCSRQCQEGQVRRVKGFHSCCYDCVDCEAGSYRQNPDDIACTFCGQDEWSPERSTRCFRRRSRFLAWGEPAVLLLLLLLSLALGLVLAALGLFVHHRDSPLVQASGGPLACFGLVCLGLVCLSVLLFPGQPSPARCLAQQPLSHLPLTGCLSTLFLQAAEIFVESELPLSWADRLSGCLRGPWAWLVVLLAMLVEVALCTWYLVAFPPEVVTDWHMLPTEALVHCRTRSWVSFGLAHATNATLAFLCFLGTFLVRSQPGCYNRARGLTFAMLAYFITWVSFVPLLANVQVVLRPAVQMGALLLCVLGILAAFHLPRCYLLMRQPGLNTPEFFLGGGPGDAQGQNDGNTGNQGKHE
Outline: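 Sweetener (sucrose, sucralose, fructose) EC50 measured alone and with 1, 3, 10 or 50 μM test compound. Enhancement ratio = EC50 without/with compound; A = >1 to <10, B = 10–20, C = >20.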

[2] = Sensory paired-comparison sweetness test of sweetener (sucrose or high-fructose corn syrup) with test compound; type: in vivo, human; conditions: test compound 10 ppm or less with 6% sucrose, low sodium buffer pH 7.1; sucrose-alone concentration of equivalent perceived sweetness
Description: Test samples containing either a sweetener (sucrose or high-fructose corn syrup) alone or in combination with a test compound were presented in pairs to a group of panelist who were asked to determine which of the samples was sweeter. Subjects refrained from eating or drinking (except water) for at least 1 hour prior to the test. Subjects rinsed with water several times to clean the mouth. The samples within a paired comparison test were presented in a randomized, counterbalanced order. Panelists had up to a 1 minute delay between taste tests to clear the mouth of any tastes. Binomial probability tables were used to determine the probability of the correct number of responses occurring for each test at alpha-0.05.
Stock solutions of test compounds were prepared at 1000× final concentration with ethanol to ensure dispersion in solution. Test compound samples including sucrose were prepared by diluting the stock solutions in a low sodium buffer (0.952 g of KCl, 5.444 g of Na2HPO4, and 0.952 g of KH2PO4 in deionized ultrafiltered water) at pH 7.1 and containing sucrose. Test compound samples including high fructose corn syrup were prepared by diluting the stock solutions in the low sodium buffer at pH 2.8 (using citric acid to adjust the pH) and containing high fructose corn syrup. Control samples were balanced to 0.1% ethanol final.
In samples containing the test compound, the test compound was present at a concentration of 10 ppm or less and the concentration of sucrose was 6%. This table indicates the sucrose-alone concentration having a perceived sweetness intensity equivalent to the sweetness intensity of the combination of test compound and sucrose. An “A” value indicates an equivalent sucrose concentration greater than 6% and less than 10%. A “B” value indicates an equivalent sucrose concentration of 10% or greater. […]

- Sucrose Enhancement EC50 Ratio ([1]; 1 μM test compound): C (an enhancement ratio greater than 20)
- Sucralose Enhancement EC50 Ratio ([1]; 3 μM test compound): B (an enhancement ratio from 10 to 20)
Compound: Cc1nc2cccc(O[C@H]3CC[C@H](NC(=O)COC4CCCC4)CC3)c2c(N)c1C(=O)O [Compound 310]
- Fructose Enhancement EC50 Ratio ([1]; 10 μM test compound): A (an enhancement ratio of greater than 1 and less than 10)
- Sucralose Enhancement EC50 Ratio ([1]; 10 μM test compound): A (an enhancement ratio of greater than 1 and less than 10)
- Equivalent Sucrose Conc. [2]: B (an equivalent sucrose concentration of 10% or greater)

- Sucrose Enhancement EC50 Ratio ([1]; 1 μM test compound): B (an enhancement ratio from 10 to 20)
Compound: Cc1nc2cccc(O[C@H]3CC[C@H](NC(=O)COC4CCCCC4)CC3)c2c(N)c1C(=O)O [Compound 311]
- Sucralose Enhancement EC50 Ratio ([1]; 3 μM test compound): A (an enhancement ratio of greater than 1 and less than 10)
- Sucrose Enhancement EC50 Ratio ([1]; 3 μM test compound): A (an enhancement ratio of greater than 1 and less than 10)
- Equivalent Sucrose Conc. [2]: A (an equivalent sucrose concentration greater than 6% and less than 10%)

- Sucrose Enhancement EC50 Ratio ([1]; 1 μM test compound): B (an enhancement ratio from 10 to 20)
- Sucralose Enhancement EC50 Ratio ([1]; 3 μM test compound): B (an enhancement ratio from 10 to 20)
- Sucralose Enhancement EC50 Ratio ([1]; 10 μM test compound): B (an enhancement ratio from 10 to 20)
- Sucrose Enhancement EC50 Ratio ([1]; 10 μM test compound): B (an enhancement ratio from 10 to 20)
Compound: Cc1nc2cccc(O[C@H]3CC[C@H](NC(=O)COC4CCC4)CC3)c2c(N)c1C(=O)O [Compound 309]
- Sucrose Enhancement EC50 Ratio ([1]; 3 μM test compound): A (an enhancement ratio of greater than 1 and less than 10)
- Fructose Enhancement EC50 Ratio ([1]; 10 μM test compound): A (an enhancement ratio of greater than 1 and less than 10)
- Equivalent Sucrose Conc. [2]: B (an equivalent sucrose concentration of 10% or greater)

- Sucrose Enhancement EC50 Ratio ([1]; 1 μM test compound): B (an enhancement ratio from 10 to 20)
- Sucralose Enhancement EC50 Ratio ([1]; 10 μM test compound): C (an enhancement ratio greater than 20)
Compound: CCCOCC(=O)N[C@H]1CC[C@H](Oc2cccc3nc(C)c(C(=O)O)c(N)c23)CC1 [Compound 305]
- Sucrose Enhancement EC50 Ratio ([1]; 3 μM test compound): A (an enhancement ratio of greater than 1 and less than 10)
- Sucrose Enhancement EC50 Ratio ([1]; 10 μM test compound): A (an enhancement ratio of greater than 1 and less than 10)
- Equivalent Sucrose Conc. [2]: B (an equivalent sucrose concentration of 10% or greater)

- Sucrose Enhancement EC50 Ratio ([1]; 1 μM test compound): B (an enhancement ratio from 10 to 20)
Compound: Cc1nc2cccc(O[C@H]3CC[C@H](NC(=O)COCC4CCC4)CC3)c2c(N)c1C(=O)O [Compound 326]

Continued, compound first:

Compound: CCc1nc2cccc(O[C@H]3CC[C@H](C)CC3)c2c(N)c1C(=O)O [Compound 201]
- Sucrose Enhancement EC50 Ratio ([1]; 1 μM test compound): A (an enhancement ratio of greater than 1 and less than 10)
- Sucrose Enhancement EC50 Ratio ([1]; 3 μM test compound): B (an enhancement ratio from 10 to 20)
- Equivalent Sucrose Conc. [2]: A (an equivalent sucrose concentration greater than 6% and less than 10%)

Compound: Cc1nc2cccc(O[C@H]3CC[C@H](Nc4ncccn4)CC3)c2c(N)c1C(=O)O [Compound 700, 4-Amino-2-methyl-5-((trans-4-(pyrimidin-2-ylamino)cyclohexyl)oxy) quinolone-3-carboxylic acid]
- Sucrose Enhancement EC50 Ratio ([1]; 1 μM test compound): A (an enhancement ratio of greater than 1 and less than 10)
- Sucralose Enhancement EC50 Ratio ([1]; 3 μM test compound): C (an enhancement ratio greater than 20)
- Sucrose Enhancement EC50 Ratio ([1]; 3 μM test compound): C (an enhancement ratio greater than 20)
- Sucralose Enhancement EC50 Ratio ([1]; 10 μM test compound): C (an enhancement ratio greater than 20)
- Sucrose Enhancement EC50 Ratio ([1]; 10 μM test compound): C (an enhancement ratio greater than 20)
- Equivalent Sucrose Conc. [2]: B (an equivalent sucrose concentration of 10% or greater)

Compound: COC[C@H]1CC[C@H](Oc2cccc3nc(C)c(C(=O)O)c(N)c23)CC1 [Compound 101, 4-Amino-5-((trans-4-(methoxymethyl)cyclohexyl)oxy)-2-methylquinoline-3-carboxylic acid]
- Sucrose Enhancement EC50 Ratio ([1]; 1 μM test compound): C (an enhancement ratio greater than 20)
- Sucrose Enhancement EC50 Ratio ([1]; 3 μM test compound): C (an enhancement ratio greater than 20)
- Fructose Enhancement EC50 Ratio ([1]; 10 μM test compound): A (an enhancement ratio of greater than 1 and less than 10)
- Sucralose Enhancement EC50 Ratio ([1]; 10 μM test compound): C (an enhancement ratio greater than 20)
- Sucrose Enhancement EC50 Ratio ([1]; 10 μM test compound): C (an enhancement ratio greater than 20)
- Equivalent Sucrose Conc. [2]: A (an equivalent sucrose concentration greater than 6% and less than 10%)

Compound: Cc1nc2cccc(O[C@H]3CC[C@H](NC(=O)COC(C)C)CC3)c2c(N)c1C(=O)O [Compound 306]
- Sucrose Enhancement EC50 Ratio ([1]; 1 μM test compound): B (an enhancement ratio from 10 to 20)
- Sucrose Enhancement EC50 Ratio ([1]; 3 μM test compound): A (an enhancement ratio of greater than 1 and less than 10)
- Sucralose Enhancement EC50 Ratio ([1]; 10 μM test compound): A (an enhancement ratio of greater than 1 and less than 10)
- Sucrose Enhancement EC50 Ratio ([1]; 10 μM test compound): A (an enhancement ratio of greater than 1 and less than 10)
- Equivalent Sucrose Conc. [2]: B (an equivalent sucrose concentration of 10% or greater)

Compound: Cc1nc2cccc(O[C@H]3CC[C@H](NC(=O)COCCC(C)C)CC3)c2c(N)c1C(=O)O [Compound 340]
- Sucrose Enhancement EC50 Ratio ([1]; 1 μM test compound): B (an enhancement ratio from 10 to 20)
- Sucralose Enhancement EC50 Ratio ([1]; 3 μM test compound): A (an enhancement ratio of greater than 1 and less than 10)
- Sucrose Enhancement EC50 Ratio ([1]; 3 μM test compound): B (an enhancement ratio from 10 to 20)

Compound: CCc1nc2cccc(OC3CCC(C)(C)CC3)c2c(N)c1C(=O)O [Compound 203]
- Sucrose Enhancement EC50 Ratio ([1]; 1 μM test compound): A (an enhancement ratio of greater than 1 and less than 10)
- Sucrose Enhancement EC50 Ratio ([1]; 3 μM test compound): A (an enhancement ratio of greater than 1 and less than 10)
- Sucrose Enhancement EC50 Ratio ([1]; 10 μM test compound): B (an enhancement ratio from 10 to 20)

Compound: Cc1nc2cccc(O[C@H]3CC[C@H](CN)CC3)c2c(N)c1C(=O)O.Cl [Compound 602]
- Sucrose Enhancement EC50 Ratio ([1]; 1 μM test compound): A (an enhancement ratio of greater than 1 and less than 10)
- Sucrose Enhancement EC50 Ratio ([1]; 3 μM test compound): A (an enhancement ratio of greater than 1 and less than 10)
- Fructose Enhancement EC50 Ratio ([1]; 10 μM test compound): A (an enhancement ratio of greater than 1 and less than 10)
- Sucrose Enhancement EC50 Ratio ([1]; 10 μM test compound): C (an enhancement ratio greater than 20)

Compound: CCc1nc2cccc(O[C@H]3CC[C@H](C(C)(C)C)CC3)c2c(N)c1C(=O)O [Compound 204]
- Sucrose Enhancement EC50 Ratio ([1]; 1 μM test compound): A (an enhancement ratio of greater than 1 and less than 10)
- Sucrose Enhancement EC50 Ratio ([1]; 3 μM test compound): A (an enhancement ratio of greater than 1 and less than 10)
- Sucrose Enhancement EC50 Ratio ([1]; 10 μM test compound): A (an enhancement ratio of greater than 1 and less than 10)

Compound: CCOC(C)(C)C(=O)N[C@H]1CC[C@H](Oc2cccc3nc(C)c(C(=O)O)c(N)c23)CC1 [Compound 316]
- Sucrose Enhancement EC50 Ratio ([1]; 1 μM test compound): A (an enhancement ratio of greater than 1 and less than 10)
- Sucrose Enhancement EC50 Ratio ([1]; 3 μM test compound): A (an enhancement ratio of greater than 1 and less than 10)
- Sucrose Enhancement EC50 Ratio ([1]; 10 μM test compound): B (an enhancement ratio from 10 to 20)
